Test results published in publication PMC11435058, “Synthesis of New Thiazole-Privileged Chalcones as Tubulin Polymerization Inhibitors with Potential Anticancer Activities” (Pharmaceuticals, 2024).

How the values were obtained:
MDA-MB-468 = test: NCI-60 anticancer screen (SRB; single dose and five doses); assay type: cell-based, human
Method in brief: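 NCI panel of about 60 human tumor cell lines treated with compound at a single concentration (10μM) for 48 h. Growth measured by SRB protein staining and expressed as percent growth of treated versus untreated control cells.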

OVCAR-3 = test: cells; conditions: Homo sapiens
HL-60(TB) = test: NCI-60 anticancer screen (SRB; single dose and five doses); conditions: Homo sapiens
A549/ATCC = test: as above; conditions: Homo sapiens
HOP-62 = test: as above; conditions: Homo sapiens
HOP-92 = test: as above; conditions: Homo sapiens
NCI-H460 = test: as above; conditions: Homo sapiens
HT29 = test: as above; conditions: Homo sapiens
KM12 = test: as above; conditions: Homo sapiens
SW-620 = test: as above; conditions: Homo sapiens
SF-295 = test: as above; conditions: Homo sapiens
SNB-75 = test: as above; conditions: Homo sapiens, SNB-75, 48 h, read-out: Growth Percentage
U251 = test: as above; conditions: Homo sapiens
MDA-MB-435 = test: as above; conditions: Homo sapiens
SK-MEL-2 = test: as above; conditions: Homo sapiens
SK-MEL-28 = test: as above; conditions: Homo sapiens
UACC-62 = test: as above; conditions: Homo sapiens
IGROV1 = test: as above; conditions: Homo sapiens
OVCAR-4 = test: as above; conditions: Homo sapiens
OVCAR-5 = test: as above; conditions: Homo sapiens
SK-OV-3 = test: as above; conditions: Homo sapiens
786-0 = test: as above; conditions: Homo sapiens
CAKI-1 = test: as above; conditions: Homo sapiens
TK-10 = test: as above; conditions: Homo sapiens
T-47D = test: as above; conditions: Homo sapiens, T47D

SMILES: Cc1[nH]c(=S)sc1C(=O)/C=C/c1ccc(Br)cc1 [2g, (E)-3-(4-Bromophenyl)-1-(4-Methyl-2-Thioxo-2,3-Dihydrothiazol-5-yl)Prop-2-En-1-One]
- activity at 10 µM (MDA-MB-468; Homo sapiens, 48 h, MDA-MB-468, dose of 10 μM, read-out: Growth Percentage): -4.75%
- GI50 (MDA-MB-468; Homo sapiens, MDA-MB-468, Breast Cancer, five dose): 1.79 µM
- CC50 (MDA-MB-468; Homo sapiens, MDA-MB-468, Breast Cancer, five dose, read-out: LC50 (the source's name)): 27.2 µM
- TGI (MDA-MB-468; MDA-MB-468, Breast Cancer, five dose): 6.77 µM
- GI50 (OVCAR-3; OVCAR-3): 1.88 µM
- activity at 10 µM (OVCAR-3; OVCAR-3, 48 h, read-out: Growth Percentage): -12.3%
- CC50 (OVCAR-3; OVCAR-3, read-out: LC50): 9.7 µM
- IC (TGI) (OVCAR-3; OVCAR-3, read-out: TGI): 4.27 µM
- GI50 (HL-60(TB); HL-60): 1.94 µM
- activity at 10 µM (HL-60(TB); HL-60, 48 h, read-out: Growth Percentage): 13.2%
- CC50 (HL-60(TB); HL-60, read-out: LC50): > 100 µM
- IC (TGI) (HL-60(TB); HL-60, read-out: TGI): 9.92 µM
- GI50 (A549/ATCC; A549): 11.7 µM
- activity at 10 µM (A549/ATCC; A549, 48 h, read-out: Growth Percentage): 64.1%
- CC50 (A549/ATCC; A549, read-out: LC50): 55.3 µM
- IC (TGI) (A549/ATCC; A549, read-out: TGI): 25.4 µM
- GI50 (HOP-62; HOP-62): 3.94 µM
- activity at 10 µM (HOP-62; HOP-62, 48 h, read-out: Growth Percentage): 11.9%
- CC50 (HOP-62; HOP-62, read-out: LC50): 61.2 µM
- IC (TGI) (HOP-62; HOP-62, read-out: TGI): 14 µM
- GI50 (HOP-92; HOP-92): 6.44 µM
- activity at 10 µM (HOP-92; HOP-92, 48 h, read-out: Growth Percentage): 67.1%
- CC50 (HOP-92; HOP-92, read-out: LC50): 58.8 µM
- IC (TGI) (HOP-92; HOP-92, read-out: TGI): 22.5 µM
- GI50 (NCI-H460; NCI-H460): 14.3 µM
- activity at 10 µM (NCI-H460; NCI-H460, 48 h, read-out: Growth Percentage): 39.1%
- CC50 (NCI-H460; NCI-H460, read-out: LC50): 80.9 µM
- IC (TGI) (NCI-H460; NCI-H460, read-out: TGI): 34.1 µM
- GI50 (HT29; HT-29): 5.09 µM
- activity at 10 µM (HT29; HT-29, 48 h, read-out: Growth Percentage): 76.3%
- CC50 (HT29; HT-29, read-out: LC50): 57.8 µM
- IC (TGI) (HT29; HT-29, read-out: TGI): 19.3 µM
- GI50 (KM12; KM12): 3.27 µM
- activity at 10 µM (KM12; KM12, 48 h, read-out: Growth Percentage): 1.17%
- CC50 (KM12; KM12, read-out: LC50): 35.9 µM
- IC (TGI) (KM12; KM12, read-out: TGI): 11 µM
- GI50 (SW-620; SW-620): 2.82 µM
- activity at 10 µM (SW-620; SW-620, 48 h, read-out: Growth Percentage): 5.7%
- CC50 (SW-620; SW-620, read-out: LC50): 41.6 µM
- IC (TGI) (SW-620; SW-620, read-out: TGI): 11.7 µM
- GI50 (SF-295; SF-295): 12.7 µM
- activity at 10 µM (SF-295; SF-295, 48 h, read-out: Growth Percentage): 90.4%
- CC50 (SF-295; SF-295, read-out: LC50): 52.7 µM
- IC (TGI) (SF-295; SF-295, read-out: TGI): 25.8 µM
- activity at 10 µM (SNB-75): 2.52%
- GI50 (U251; U-251): 2.87 µM
- activity at 10 µM (U251; U-251, 48 h, read-out: Growth Percentage): 15.5%
- CC50 (U251; U-251, read-out: LC50): 39.7 µM
- IC (TGI) (U251; U-251, read-out: TGI): 11.7 µM
- GI50 (MDA-MB-435; MDA-MB-435): 4.12 µM
- activity at 10 µM (MDA-MB-435; MDA-MB-435, 48 h, read-out: Growth Percentage): 8.26%
- CC50 (MDA-MB-435; MDA-MB-435, read-out: LC50): 45.1 µM
- IC (TGI) (MDA-MB-435; MDA-MB-435, read-out: TGI): 16.7 µM
- GI50 (SK-MEL-2; SK-MEL-2): 5.87 µM
- activity at 10 µM (SK-MEL-2; SK-MEL-2, 48 h, read-out: Growth Percentage): 62.3%
- CC50 (SK-MEL-2; SK-MEL-2, read-out: LC50): 47.9 µM
- IC (TGI) (SK-MEL-2; SK-MEL-2, read-out: TGI): 19.5 µM
- GI50 (SK-MEL-28; SK-MEL-28): 11.9 µM
- activity at 10 µM (SK-MEL-28; SK-MEL-28, 48 h, read-out: Growth Percentage): 64.2%
- CC50 (SK-MEL-28; SK-MEL-28, read-out: LC50): 50.2 µM
- IC (TGI) (SK-MEL-28; SK-MEL-28, read-out: TGI): 24.5 µM
- GI50 (UACC-62; UACC-62): 5.17 µM
- activity at 10 µM (UACC-62; UACC-62, 48 h, read-out: Growth Percentage): 46.8%
- IC (TGI) (UACC-62; UACC-62, read-out: TGI): 18.6 µM
- GI50 (IGROV1; IGROV-1): 3.29 µM
- activity at 10 µM (IGROV1; IGROV-1, 48 h, read-out: Growth Percentage): 37.1%
- CC50 (IGROV1; IGROV-1, read-out: LC50): 53.4 µM
- IC (TGI) (IGROV1; IGROV-1, read-out: TGI): 11.9 µM
- GI50 (OVCAR-4; OVCAR-4): 10.7 µM
- activity at 10 µM (OVCAR-4; OVCAR-4, 48 h, read-out: Growth Percentage): 49.5%
- CC50 (OVCAR-4; OVCAR-4, read-out: LC50): 48.5 µM
- IC (TGI) (OVCAR-4; OVCAR-4, read-out: TGI): 22.8 µM
- GI50 (OVCAR-5; OVCAR-5): 15.4 µM
- activity at 10 µM (OVCAR-5; OVCAR-5, 48 h, read-out: Growth Percentage): 116%
- CC50 (OVCAR-5; OVCAR-5, read-out: LC50): 57.3 µM
- IC (TGI) (OVCAR-5; OVCAR-5, read-out: TGI): 29.7 µM
- GI50 (SK-OV-3; SK-OV-3): 13.8 µM
- activity at 10 µM (SK-OV-3; SK-OV-3, 48 h, read-out: Growth Percentage): 96.7%
- CC50 (SK-OV-3; SK-OV-3, read-out: LC50): 74.9 µM
- IC (TGI) (SK-OV-3; SK-OV-3, read-out: TGI): 32.2 µM
- GI50 (786-0; 786-0): 3.33 µM
- activity at 10 µM (786-0; 786-0, 48 h, read-out: Growth Percentage): 25%
- CC50 (786-0; 786-0, read-out: LC50): 41.8 µM
- IC (TGI) (786-0; 786-0, read-out: TGI): 13.3 µM
- GI50 (CAKI-1; CAKI-1): 10 µM
- activity at 10 µM (CAKI-1; CAKI-1, 48 h, read-out: Growth Percentage): 32.8%
- CC50 (CAKI-1; CAKI-1, read-out: LC50): 47.2 µM
- IC (TGI) (CAKI-1; CAKI-1, read-out: TGI): 21.8 µM
- GI50 (TK-10; TK-10): 3.04 µM
- activity at 10 µM (TK-10; TK-10, 48 h, read-out: Growth Percentage): 37.8%
- CC50 (TK-10; TK-10, read-out: LC50): 35.2 µM
- IC (TGI) (TK-10; TK-10, read-out: TGI): 11.8 µM
- GI50 (T-47D): 2.77 µM
- activity at 10 µM (T-47D; 48 h, read-out: Growth Percentage): 29%
- CC50 (T-47D; read-out: LC50): 61.7 µM
- IC (TGI) (T-47D; read-out: TGI): 11.8 µM
